According to ChEMBL document CHEMBL1146569, “The pterocellins, novel bioactive alkaloids from the marine bryozoan Pterocella vesiculosa” (J Nat Prod, 2003):

Tests used:
Assay type in all cases: functional
MDA-MB-231 = test: Growth inhibition of human MDA-MB-231 cells; settings: for CC50: read-out: LC50 (the source's name)
HL-60(TB) = test: Growth inhibition of human HL-60(TB) cells; settings: for CC50: read-out: LC50 (the source's name)
MDA-MB-435 = test: Growth inhibition of human MDA-MB-435 cells; settings: for CC50: read-out: LC50 (the source's name)
786-0 = test: Growth inhibition of human 786-0 cells
SK-MEL-2 = test: Growth inhibition of human SK-MEL-2 cells; settings: for CC50: read-out: LC50 (the source's name)
M14 = test: Growth inhibition of human M14 cells
OVCAR-5 = test: Growth inhibition of human OVCAR5 cells; settings: for CC50: read-out: LC50 (the source's name)
NCI/ADR-RES = test: Growth inhibition of human NCI/ADR-RES cells; settings: for CC50: read-out: LC50 (the source's name)
SN12C = test: Growth inhibition of human SN12C cells
UACC-257 = test: Growth inhibition of human UACC257 cells; settings: for CC50: read-out: LC50 (the source's name)
DU-145 = test: Growth inhibition of human DU145 cells; settings: for CC50: read-out: LC50 (the source's name)
MOLT-4 = test: Growth inhibition of human MOLT4 cells
[1] = Growth inhibition of human Hs 578T cells; settings: for CC50: read-out: LC50 (the source's name)
T47D = test: Growth inhibition of human T47D cells; settings: for CC50: read-out: LC50 (the source's name)
CCRF-CEM = test: Growth inhibition of human CCRF-CEM cells; settings: for CC50: read-out: LC50 (the source's name)
UO-31 = test: Growth inhibition of human UO31 cells; settings: for CC50: read-out: LC50 (the source's name)
IGROV-1 = test: Growth inhibition of human IGROV1 cells; settings: for CC50: read-out: LC50 (the source's name)
BT-549 = test: Growth inhibition of human BT549 cells; settings: for CC50: read-out: LC50 (the source's name)
SNB-75 = test: Growth inhibition of human SNB75 cells; settings: for CC50: read-out: LC50 (the source's name)
SF-268 = test: Growth inhibition of human SF268 cells

In the case of `COc1cn2c(cc1=O)C(=O)c1ccnc(Cc3ccccc3)c1-2` [PTEROCELLIN B], the GI50 (MDA-MB-231) is reported as 3300 nM, the TGI (MDA-MB-231) is reported as 29600 nM and the CC50 (MDA-MB-231) is reported as > 100000 nM. The GI50 (HL-60(TB)) was 1000 nM, the TGI (HL-60(TB)) was 5100 nM and the CC50 (HL-60(TB)) was 43500 nM. For the same compound, the GI50 (MDA-MB-435) was 200 nM, the TGI (MDA-MB-435) was 300 nM and the CC50 (MDA-MB-435) was 600 nM. It also gave a GI50 (786-0) of 1800 nM, an LC50 (concentration killing 50% of cells) (786-0) of 17900 nM and a TGI (786-0) of 5000 nM. The GI50 (SK-MEL-2) was 700 nM, the TGI (SK-MEL-2) was 2200 nM and the CC50 (SK-MEL-2) was 5300 nM. It also gave a GI50 (M14) of 100 nM, an LC50 (concentration killing 50% of cells) (M14) of 500 nM and a TGI (M14) of 200 nM. It also gave a GI50 (OVCAR-5) of 1200 nM, a TGI (OVCAR-5) of 2400 nM and a CC50 (OVCAR-5) of 4900 nM. For the same compound, the GI50 (NCI/ADR-RES) was 1400 nM, the TGI (NCI/ADR-RES) was 3900 nM and the CC50 (NCI/ADR-RES) was 15300 nM. It also gave a GI50 (SN12C) of 500 nM, an LC50 (SN12C) of 5500 nM and a TGI (SN12C) of 1800 nM. For the same compound, the GI50 (UACC-257) was 200 nM, the TGI (UACC-257) was 700 nM and the CC50 (UACC-257) was 2900 nM. The GI50 (DU-145) was 200 nM, the TGI (DU-145) was 300 nM and the CC50 (DU-145) was 600 nM. For the same compound, the GI50 (MOLT-4) was 1400 nM, the LC50 (concentration killing 50% of cells) (MOLT-4) was 5600 nM and the TGI (MOLT-4) was 2900 nM. The GI50 [1] was 5100 nM, the TGI [1] was > 100000 nM and the CC50 [1] was > 100000 nM. For the same compound, the GI50 (T47D) was 1300 nM, the TGI (T47D) was 3200 nM and the CC50 (T47D) was > 100000 nM. For the same compound, the GI50 (CCRF-CEM) was 1700 nM, the TGI (CCRF-CEM) was 5200 nM and the CC50 (CCRF-CEM) was > 100000 nM. For the same compound, the GI50 (UO-31) was 1300 nM, the TGI (UO-31) was 2800 nM and the CC50 (UO-31) was 5700 nM. It also gave a GI50 (IGROV-1) of 1000 nM, a TGI (IGROV-1) of 2500 nM and a CC50 (IGROV-1) of 6000 nM. It also gave a GI50 (BT-549) of 1500 nM, a TGI (BT-549) of 2900 nM and a CC50 (BT-549) of 5600 nM. It also gave a GI50 (SNB-75) of 200 nM, a TGI (SNB-75) of 900 nM and a CC50 (SNB-75) of 5300 nM. For the same compound, the GI50 (SF-268) was 1700 nM, the LC50 (concentration killing 50% of cells) (SF-268) was 21500 nM and the TGI (SF-268) was 5500 nM.

`COc1cn2c(cc1=O)C(=O)c1ccnc(CC(C)C)c1-2` [PTEROCELLIN A] showed a GI50 (MDA-MB-231) of 2600 nM, a TGI (MDA-MB-231) of 14100 nM and a CC50 (MDA-MB-231) of 51700 nM. The GI50 (HL-60(TB)) was 3000 nM, the TGI (HL-60(TB)) was > 100000 nM and the CC50 (HL-60(TB)) was > 100000 nM. For the same compound, the GI50 (MDA-MB-435) was 200 nM, the TGI (MDA-MB-435) was 300 nM and the CC50 (MDA-MB-435) was 600 nM. It also gave a GI50 (786-0) of 1300 nM, an LC50 (concentration killing 50% of cells) (786-0) of 24400 nM and a TGI (786-0) of 4700 nM. For the same compound, the GI50 (SK-MEL-2) was 1900 nM, the TGI (SK-MEL-2) was 3400 nM and the CC50 (SK-MEL-2) was 6300 nM. The GI50 (M14) was 200 nM, the LC50 (concentration killing 50% of cells) (M14) was 4600 nM and the TGI (M14) was 800 nM. It also gave a GI50 (OVCAR-5) of 2000 nM, a TGI (OVCAR-5) of 3400 nM and a CC50 (OVCAR-5) of 5600 nM. The GI50 (NCI/ADR-RES) was 2100 nM, the TGI (NCI/ADR-RES) was 4900 nM and the CC50 (NCI/ADR-RES) was > 100000 nM. For the same compound, the GI50 (SN12C) was 1700 nM, the LC50 (SN12C) was 6500 nM and the TGI (SN12C) was 3300 nM. It also gave a GI50 (UACC-257) of 1100 nM, a TGI (UACC-257) of 3000 nM and a CC50 (UACC-257) of 7900 nM. The GI50 (DU-145) was 700 nM, the TGI (DU-145) was 2000 nM and the CC50 (DU-145) was 4700 nM. The GI50 (MOLT-4) was 3500 nM, the LC50 (concentration killing 50% of cells) (MOLT-4) was > 100000 nM and the TGI (MOLT-4) was > 100000 nM. For the same compound, the GI50 [1] was 6300 nM, the TGI [1] was > 100000 nM and the CC50 [1] was > 100000 nM. For the same compound, the GI50 (T47D) was 1800 nM, the TGI (T47D) was 6500 nM and the CC50 (T47D) was > 100000 nM. For the same compound, the GI50 (CCRF-CEM) was 50 nM, the TGI (CCRF-CEM) was 800 nM and the CC50 (CCRF-CEM) was > 100000 nM. For the same compound, the GI50 (UO-31) was 2200 nM, the TGI (UO-31) was 6100 nM and the CC50 (UO-31) was 22200 nM. It also gave a GI50 (IGROV-1) of 2100 nM, a TGI (IGROV-1) of 5400 nM and a CC50 (IGROV-1) of 18400 nM. For the same compound, the GI50 (BT-549) was 1700 nM, the TGI (BT-549) was 4000 nM and the CC50 (BT-549) was 9300 nM. The GI50 (SNB-75) was 1400 nM, the TGI (SNB-75) was 3900 nM and the CC50 (SNB-75) was 56800 nM. The GI50 (SF-268) was 2100 nM, the LC50 (concentration killing 50% of cells) (SF-268) was 26700 nM and the TGI (SF-268) was 6700 nM.
